According to patent publication US9133225B2, “Dual targeting anticancer agents” (priority 2013, dated 2015):

Key:
A549 cells [1] = experiment: Cell cycle flow cytometry (propidium iodide); assay type: cell-based; conditions: 3 μM
Protocol: Flow-cytometric measurements were also performed to determine the effect of Pt(IV)(α-TOS)(OEt) exposure on cell cycle progression. A549 cells were treated with Pt(IV)(α-TOS)(OEt), 3 μM, for 24, and 48 hours. The cell cycle distribution was compared with untreated cells. […] After 24 hours the untreated population had 78.1% in G1 phase, 17.7% in S phase, 4.5% in G2/M phase. After 48 hours the untreated population had 81.0% in G1 phase, 16.0% in S phase, 3.0% in G2/M phase. After 24 hours the treated population had 64.7% in G1 phase, 31.7% in S phase, 3.6% in G2/M phase. After 48 hours, the treated population had 70.4% in G1 phase, 26.2% in S phase, 3.4% in G2/M phase. […] It was therefore clear that Pt(IV)(α-TOS)(OEt) disturbed DNA synthesis and arrest at S-phase.
In order to monitor the cell cycle, flow cytometry studies were carried out. A549 cells were incubated with and without the test compounds for 24 and 48 h at 37° C. Cells were harvested from adherent cultures by trypsinization and combined with all detached cells from the incubation medium to assess total cell viability. Following centrifugation at 1000 rpm for 5 min, cells were washed with PBS and then fixed with 70% ethanol in PBS. Fixed cells were collected by centrifugation at 2500 rpm for 3 min, washed with PBS and centrifuged as before. Cellular pellets were re-suspended in 50 μg/mL propidium iodide (Sigma) in PBS for nucleic acids staining and treated with 100 μg/mL RNaseA (Sigma). DNA content was measured on a FACSCalibur-HTS flow cytometer (BD Biosciences) using laser excitation at 488 nm and 20,000 events per sample were acquired. Cell cycle profiles were analysed using the ModFit software. For the apoptosis experiments, the Annexin V-FITC Early Apoptosis Detection Kit (Cell Signaling Technology) was used. The manufacture's protocol was followed to carry out this experiment. Briefly, untreated and treated cells (1×10^5) were suspended in 1× annexin binding buffer (96 μL) (10 mM HEPES, 140 mM NaCl, 2.5 mM CaCl2, pH 7.4), then 1 μL FITC annexin V and 12.5 μL propidium iodine (10 μg/mL) were added to each sample and incubated on ice for 15 min. Subsequently, more binding buffer (150 μL) was added while gently mixing. The samples were kept on ice prior to being read on the FACSCalibur-HTS flow cytometer (BD Biosciences) (20,000 events per sample were acquired). Cell populations were analysed using the FlowJo software (Tree Star). For the JC-1 assay, the JC-1 Mitochondrial Membrane Potential Assay Kit (Cayman) was used. The manufacture's protocol was followed to carry out this experiment. Briefly, to untreated and treated cells grown in 6-well plates (at a density of 5×10^5 cells/mL) was added the JC-1 staining solution (100 μL/mL of cell media). The cells were incubated for 30 min, harvested, and analysed by using the FACSCalibur-HTS flow cytometer (BD Biosciences) (20,000 events per sample were acquired). The FL1 channel was used to detect unhealthy or apoptotic cells with collapsed mitochondria. Cell populations were analysed using the FlowJo software (Tree Star).

[2] = test system: A2780 ovarian cancer cells; experiment: PI-annexin-V dual staining apoptosis assay; assay type: cell-based; conditions: 4 μM for 48 h
HeLa cells = experiment: MTT cytotoxicity assay, HeLa; conditions: read-out: cytotoxicity IC50; HeLa, cervical; MTT, 48 h treatment; spread in brackets
Source text: (§1) (a) Dulbecco's Modified Eagle Medium (DMEM), Dulbecco's phosphate buffered saline (DPBS), fetal bovine serum (FBS) and 0.25% trypsin/EDTA solutions were purchased from Cellgro (Manassas, Va.). Penicillin-streptomycin solutions were purchased from Mediatech (Manassas, Va.). (b) HeLa (CCL-2TM) cells, A549, A2870, A2870/CP70, MCF-7, PC-3, and MRC-5 cells were purchased from American Type Culture Collection (ATCC, Manassas, Va., USA). (c) HCT116 cells were kindly donated by Laura Trudel (MIT). HeLa, A549, MCF-7, and MRC-5 cells were cultured using DMEM supplemented with 10% FBS and 1% penicillin-streptomycin. A2870, A2870/CP70, and PC-3 cells were cultured in RPMI supplemented with 10% FBS and 1% penicillin-streptomycin. HCT116 cells were cultured in McCoy's supplemented with 10% FBS and 1% penicillin-streptomycin. All cell-culture experiments were performed in the aforementioned media in an incubator operating at 37° C. and in the presence of a humidified atmosphere containing 5.0% CO2. Cells were harvested using a 0.25% trypsin/EDTA solution.
(§2) The cytotoxicity of the compounds was assessed by means of the MTT assay (MTT=3-(4,5-dimethyl-2-thiazolyl)-2,5-diphenyl-2H-tetrazolium bromide). Typically, on day one, ˜1×10^3 cells were seeded into 96-well plates in 100 μL media per well. […] The optical density for each well at 550 nm was measured with a microplate reader.

A549 cells [3] = experiment: MTT cytotoxicity assay, A549; conditions: read-out: cytotoxicity IC50; A549, lung; MTT, 48 h treatment; spread in brackets
Source text: as §1, §2

**Q.** For `CC[O][Pt]([NH2])([NH2])([Cl])([Cl])[O]C(=O)CCC(=O)Oc1c(C)c(C)c2c(c1C)CCC(C)(CCCC(C)CCCC(C)CCCC(C)C)O2` (stereo not drawn) [Pt(IV)(α-TOS)(OEt)], which “cell population in G1 phase” value (A549 cells [1]; 24 hours) is on record?
**A.** The value was 64.7%.

**Q.** And the “cell population in G2/M phase” value (A549 cells [1]; 24 hours)?
**A.** Its value is 3.6%.

**Q.** What about the “cell population in S phase” value (A549 cells [1]; 24 hours) of the same compound?
**A.** The value was 31.7%.

**Q.** What about the “cell population in G1 phase” value (A549 cells [1]; 48 hours) of the same compound?
**A.** Its value is 70.4%.

**Q.** And the “cell population in G2/M phase” value (A549 cells [1]; 48 hours)?
**A.** Its value is 3.4%.

**Q.** And the “cell population in S phase” value (A549 cells [1]; 48 hours)?
**A.** Its value is 26.2%.

**Q.** What about the “cell population with characteristics of early apoptosis” value [2] of the same compound?
**A.** Its value is 28%.

**Q.** And the IC50 (HeLa cells)?
**A.** Its IC50 is 1900 nM.

**Q.** And the IC50 (A549 cells [3])?
**A.** Its IC50 is 1300 nM.
